Reference: ChEMBL document CHEMBL5674860, “Optimized Dual-Glo Assay to identify co-culture-induced drug vulnerabilities in 3D CRC models” (2024)
Square brackets hold non-standard residues; d marks the D form. Peptide text beside a SMILES is read from it. Arg(Me) = CNC(=N)NCCC[C@H](N)C(=O)O; d3Pal = N[C@H](Cc1cccnc1)C(=O)O; azaGly = NNC(=O)O

Tests used:
Format in all cases: functional, Homo sapiens
Parameters in all cases: dose or concentration left out as unconfirmed
[1] = test system: Colon cancer organoid; assay: Optimized Dual-Glo assay to identify co-culture induced drug vulnerabilities using donated chemical probes and chemogenomics kinase set in O06 CRC organoid and F06 CAF mono and co-culture. […] Cell viability is reported both mono and co-culture models.
[2] = test system: Colon cancer organoid; assay: Optimized Dual-Glo assay to identify co-culture induced drug vulnerabilities using donated chemical probes and chemogenomics kinase set in O14 CRC organoid and F14 CAF mono and co-culture. […] Cell viability is reported both mono and co-culture models.
[3] = test system: Colon cancer organoid; assay: Optimized Dual-Glo assay to identify co-culture induced drug vulnerabilities using donated chemical probes and chemogenomics kinase set in O20 CRC organoid and F20 CAF mono and co-culture. […] Cell viability is reported both mono and co-culture models.
[4] = Culture type Co-Culture, Transduced with Lucferase2-P2A-EGFP lentivirus
[5] = Culture type Co-Culture, Transduced with Renilla-dsRed lentivirus
[6] = Culture type Mono-Culture, Transduced with Lucferase2-P2A-EGFP lentivirus
[7] = Culture type Mono-Culture, Transduced with Renilla-dsRed lentivirus

| SMILES | Cell Viability [1, 4] [%] | Cell Viability [1, 5] [%] | Cell Viability [1, 6] [%] | Cell Viability [1, 7] [%] | Cell Viability [2, 4] [%] | Cell Viability [2, 5] [%] | Cell Viability [2, 6] [%] | Cell Viability [2, 7] [%] | Cell Viability [3, 4] [%] | Cell Viability [3, 5] [%] | Cell Viability [3, 6] [%] | Cell Viability [3, 7] [%] |
| --- | --- | --- | --- | --- | --- | --- | --- | --- | --- | --- | --- | --- |
| CNC(=N)NCCC[C@H](NC(=O)[C@H](CC(C)C)NC(=O)NNC(=O)[C@H](Cc1ccccc1)NC(=O)[C@H](CO)NC(=O)[C@H](CC(N)=O)NC(=O)[C@@H](Cc1cccnc1)NC(=O)[C@H](N)Cc1ccc(O)cc1)C(=O)NCC(N)=O [KISS1-543] (H-[dY][d3Pal]NSF[azaGly]L[Arg(Me)]G-NH2) | 103.647 | 101.302 | 85.2773 | 99.9886 | 118.116 | 72.7172 | 93.1075 | 78.975 | 101.104 | 120.489 | 73.3632 | 97.5472 |
| C[C@]1(O)C[C@@H](c2nc(-c3ccc4ccc(-c5ccccc5)nc4c3)c3c(N)nccn32)C1 [LINSITINIB] | 53.0716 | 100.619 | 21.1574 | 74.7669 | 41.9562 | 109.271 | 38.702 | 83.4141 | 60.4709 | 65.9185 | 18.406 | 73.2347 |
| O=C(NOC[C@H](O)CO)c1ccc(F)c(F)c1Nc1ccc(I)cc1F [MIRDAMETINIB] | 8.8965 | 49.9042 | 7.213 | 36.7215 | 4.141 | 39.571 | 2.016 | 25.7095 | 3.888 | 83.5811 | 5.164 | 45.8585 |
| CCS(=O)(=O)Nc1ccc(Oc2ccc(F)cc2F)c(-c2cn(C)c(=O)c3[nH]ccc23)c1 [MIVEBRESIB] | 13.1828 | 272.686 | 12.7607 | 153.585 | 11.3223 | 338.596 | 8.201 | 180.439 | 5.728 | 64.2458 | 7.404 | 12.1973 |
| CN([C@@H]1CCc2c(CC(=O)O)c3ccccc3n2C1)S(=O)(=O)c1ccc(F)cc1 [MK-7246] | 127.259 | 149.477 | 87.9847 | 110.238 | 76.0592 | 112.144 | 82.2127 | 107.31 | 94.6909 | 109.932 | 110.185 | 99.3239 |
| C[C@@H]1CN(c2cc(-c3nn(C)c4ccc(OC5(C)CC5)cc34)ncn2)C[C@H](C)O1 [MLi-2-NC] | 21.8005 | 254.626 | 83.2909 | 98.8275 | 118.993 | 72.3586 | 109.582 | 102.606 | 112.711 | 86.6644 | 122.371 | 89.7102 |
| CC(=O)c1c(NS(C)(=O)=O)c2cc(-c3ccc(Cl)cc3)c(-c3ccc(Cl)cc3Cl)nc2n(C)c1=O [MRL-CB1-NC] | 125.408 | 125.307 | 109.863 | 112.651 | 103.447 | 111.697 | 108.811 | 108.592 | 159.821 | 122.581 | 102.28 | 97.0964 |
| Cc1ccc(-c2cnc([C@@]3(O)CC[C@H](C(=O)O)C(C)(C)C3)s2)cc1Nc1cccc(C(F)(F)F)n1 [MRL-SYKi-NC] | 103.411 | 158.333 | 78.37 | 87.8946 | 89.1631 | 98.4974 | 85.8631 | 77.2403 | 106.503 | 131.597 | 144.144 | 94.9642 |
| COc1cc(C(=O)O)ncc1C#Cc1ccccc1NS(=O)(=O)c1cccc2c(N(C)C)ccnc12 [MSC-0516] | 46.2412 | 64.6541 | 39.7973 | 95.1501 | 94.2911 | 93.5429 | 114.942 | 88.0348 | 89.6649 | 109.372 | 112.972 | 85.9962 |
| FC(F)(F)c1ccc2c(c1)nc(-c1cccnc1)n2C1CC1 [MSD-CYP11B2-Negative-control] | 103.115 | 83.1787 | 99.8949 | 100.759 | 79.1334 | 88.6801 | 68.2082 | 99.4361 | 98.8357 | 114.7 | 79.6989 | 74.5522 |
| CC(C)(O)c1cncc(-c2nc3ccc(F)cc3n2C2CC2)c1 [MSD-CYP11B2] | 83.611 | 134.058 | 92.3684 | 91.4752 | 60.604 | 97.9336 | 96.2618 | 98.7246 | 80.0796 | 128.543 | 82.8695 | 83.5223 |
| N#CC1(c2ccccn2)CCN(Cc2cc(C(=O)N3CCCC3)c(=O)n3ccccc23)CC1 [MSD-M1PAM-NC] | 85.4848 | 72.6928 | 94.7679 | 111.31 | 77.5991 | 103.607 | 89.6138 | 86.9553 | 102.191 | 109.338 | 89.1265 | 100.403 |
| N#CC1(c2ccccn2)CCN(Cc2cc(C(=O)O)c(=O)n3ccccc23)CC1 [MSD-M1PAM] | 12.088 | 188.309 | 35.5128 | 99.638 | 126.16 | 122.221 | 72.0486 | 98.779 | 53.1969 | 117.537 | 81.9362 | 89.7444 |
